“Also recorded” adds a separate entry of the source. Blank lines part the entries; values can stand above or below the compound they belong to.
What was measured:
[1] = system: cuprizone-induced demyelination mice; assay: Cuprizone-induced demyelination model with cuprizone withdrawal, Experiment 2; format: in vivo, mouse (C57BL/6); conditions: week 5 to week 7; COMPOUND 100 mg/kg b.i.d., fingolimod 0.3 mg/kg q.d.
Procedure: Male C57BL/6 mice are exposed to a 0.2% cuprizone diet for six weeks and then switched to control food for one more week. Groups of 8-9 mice are dosed orally starting after five weeks of cuprizone exposure. It consists of three treatment groups: • 1. Vehicle (0.5% Methylcellulose/0.5% Tween® 80) b.i.d., from week 5 to week 7 • 2. Fingolimod (0.3 mg/kg) q.d.+Vehicle q.d., from week 5 to week 7 • 3. […] Hematology parameters, including lymphocyte count, are measured at the termination of the experiment, one hour after the last dosing. […] Brain samples are isolated and fixed for histopathological and immunohistochemistry examinations to assess the degree of demyelination (Luxol Fast Blue for myelin staining).

[2] = system: cuprizone-induced demyelination mice; assay: Cuprizone-induced demyelination mouse model, Experiment 1; format: in vivo, mouse (C57BL/6); conditions: 6 weeks
Procedure: Male C57BL/6 mice are exposed to cuprizone (CPZ; 150 mg/kg, b.i.d.), a […] chelating agent which leads to the death of mature oligodendrocytes, by oral gavage twice daily for six weeks. […] The experiment is terminated after 6 weeks of cuprizone exposure. […] CXCL12 plasma concentrations are measured as previously described in example A. Brain samples are isolated and fixed for histopathological and immunohistochemistry examinations to assess the degree of demyelination (Luxol Fast Blue for myelin staining) and the loss of mature oligodendrocytes (GSTiT staining).

[3] = system: CXCL12 in plasma (biomarker of CXCR7 receptor antagonist); assay: Dose finding of COMPOUND in naive mice, CXCL12 elevation in plasma; format: in vivo, mouse (C57BL/6); conditions: COMPOUND 100 mg/kg b.i.d. oral, 3 days, naive C57BL/6 mice, exposure at trough (14 hours after last dosing), only the highest dose tested
Description: CXCL12 or CXCL11 plasma concentrations may be determined using methods well known in the art, e.g. an Ella® immunoassay (Bio-Techne®), or a commercial quantikine ELISA mouse CXCL12/SDF1α kit from R&D systems.

PLP-induced EAE mice = assay: Monotherapy efficacy experiment in the PLP-induced EAE model (therapeutic setting); format: in vivo, mouse (SJL/J)
Procedure: (§1) Female SJL/J mice are immunized with an emulsion of PLP in CFA and pertussis toxin (day 0). A total of 100 μg of PLP is injected per mice at two sites subcutaneously in each flank of the abdomen. Mice are injected intraperitoneally with pertussis toxin a second time, 2 days after the first injection (day 2). Within 9 to 16 days, mice develop signs of paralysis which will be graded on a scale from 0 to 5 assessing the tail and limbs defined as: 0=no clinical sign of EAE, 0.5=end tail paralyzed or one limb weakness, 1=tail paralyzed or two limbs weakness, 1.5=tail paralyzed and one hind limb weakness, 2=tail paralyzed and bilateral partial hind limb paralysis, 2.5=tail paralyzed and unilateral complete hind limb paralysis, 2.75=score of 2.5+unilateral partial hind limb paralysis, 3=complete bilateral hind limb paralysis, 3.25=3+unilateral partial forelimb paralysis, 3.5=3+unilateral complete forelimb paralysis, 4=complete paralysis (moribund) and, 5=death or euthanized. The disease progression follows a relapsing-remitting course with a first peak of disease occurring three to five days after the onset, followed by a remission phase and a second peak of the disease between 20-30 days after EAE induction.
The study consists of four treatment groups: • 1. Vehicle (water) b.i.d., from disease onset for each mouse • 2.
Clinical scores are assessed on a daily basis, in a blinded manner and disease development is compared between vehicle-treated mice and mice receiving COMPOUND. The cumulative disease score is calculated for each mouse by summing all the daily clinical scores over the 30-days after treatment initiation. […] CXCL12 plasma concentrations are determined as previously described in example A.

healthy male subjects = assay: First-in-human single-dose study in healthy male subjects (NCT03869320); format: in vivo
Procedure: (§2) […] […] In the 30 mg dose level group the effect of food is additionally investigated by administering the same treatment to the same subjects after a standardized high-fat breakfast.

[4] = as above; format: in vivo; conditions: male, human, plasma
Procedure: as §2

MOG-induced EAE mice [5] = assay: Combination efficacy experiment in the MOG-induced EAE model (therapeutic setting); format: in vivo, mouse (C57BL/6); conditions: for efficacy on the clinical scores of the disease: from day 7 (just before onset), COMPOUND 100 mg/kg b.i.d., fingolimod 0.03 mg/kg q.d., combination effect from day 14 onwards
Procedure: The combination efficacy experiment is performed in the same mouse EAE model as described for the pilot experiments.
Groups of 10 mice are dosed orally starting just before the onset of disease (day 7). It consists of four treatment groups: • 1. Vehicle (0.5% Methylcellulose/0.5% Tween® 80) b.i.d., from day 7 • 2. Fingolimod (0.03 mg/kg) q.d.+Vehicle q.d., from day 7 • 3.
Clinical scores are assessed on a daily basis and disease development is compared between vehicle-treated mice and mice receiving the different treatments. The experiment is terminated at day 16 or day 17. Hematology parameters, including lymphocyte count, are measured at the termination of the experiment. […] CXCL12 plasma concentrations are determined using a commercial quantikine ELISA mouse CXCL12/SDF1c kit from R&D systems, according to manufacturer's instructions.

MOG-induced EAE mice [6] = assay: Monotherapy efficacy experiment in MOG-induced EAE model (preventive setting); format: in vivo, mouse (C57BL/6)
Procedure: as §1, with “C57BL/6” for “SJL/J”, “MOG” for “PLP”, “complete Freund's adjuvant (CFA)” for “CFA”, “150” for “100”, “14” for “16”, “euthanized.” for “euthanized. The disease progression follows a relapsing-remitting course with a first peak of disease occurring three to five days after the onset, followed by a remission phase and a second peak of the disease between 20-30 days after EAE induction.”
The disease progression follows a chronic progressive course with no remission.
It consists of four treatment groups: • 1. Vehicle (water) b.i.d., from day 0 • 2.
Clinical scores are assessed on a daily basis and disease development is compared between vehicle-treated mice and mice receiving COMPOUND. The cumulative disease score is calculated for each mouse by summing all the daily clinical scores over the 29-days study period. The experiment is terminated at day 29, 1 to 4 hours post dosing. […] CXCL12 plasma concentrations are determined using a commercial quantikine ELISA mouse CXCL12/SDF1c kit from R&D systems, according to manufacturer's instructions.
Groups of 10 mice are dosed orally starting at the day of disease induction (day 0). It consists of two treatment groups: • 1. Vehicle (0.5% Methylcellulose/0.5% Tween® 80) b.i.d., from day 0 • 2. Fingolimod (0.03 mg/kg) q.d.+Vehicle q.d., from day 0
Clinical scores are assessed on a daily basis and disease development is compared between vehicle-treated mice and mice receiving fingolimod. The cumulative disease score is calculated for each mouse by summing all the daily clinical scores over the 27-days study period. The experiment is terminated at day 27.

patients = conditions: cited from earlier work
[7] = system: lymphocyte count in peripheral blood; assay: Dose finding of fingolimod in healthy mice, lymphocyte count in peripheral blood; format: in vivo, mouse (C57BL/6)
Procedure: In parallel to the measurement of target engagement of COMPOUND, a second pilot experiment is performed. Healthy female C57BL/6 receive fingolimod at different doses in the range from 0.01 to 0.3 mg/kg, once daily (q.d.). The goal is to assess the dose-effect relationship of fingolimod on lymphocyte count in peripheral blood (which is an established biomarker to monitor pharmacological activity of S1P1 receptor modulators) in this strain of mouse over 24 h.

[8] = system: lymphocyte count in peripheral blood; assay: Dose finding of siponimod in healthy SJL/J mice, alone and with COMPOUND; format: in vivo, mouse (SJL/J); conditions: siponimod 0.3 mg/kg q.d. oral, healthy female SJL/J mice
Procedure: In a pilot experiment, healthy female SJL/J mice are dosed orally for 2 to 3 days with siponimod at different doses in the range from 0.03 to 1 mg/kg, once daily. The goal is to assess the dose-effect relationship of siponimod on lymphocyte count in peripheral blood (which is an established biomarker to monitor pharmacological activity of S1P1 receptor modulators) in this strain of mouse over 24 h.

[9] = COMPOUND 10, 100, 150 mg/kg b.i.d. from disease onset

food effect on the pharmacokinetics (healthy male subjects; 30 mg, standardized high-fat breakfast vs fasted): no relevant food effect | exposure increase across the dose range (healthy male subjects; 1 to 200 mg single oral dose): essentially dose-proportional | bioavailability ([4]; iv, i.v. microtracer, 200 mg dose level group, read-out: absolute bioavailability): ~50% | Tmax ([4]; single oral doses >=10 mg, fasted): 1.3 to 3 h
Structure (SMILES): O=C(N[C@H]1CCN(CC2CC2)C[C@@H]1C(=O)NC1(c2ncccn2)CC1)c1cc(-c2ccc(F)cc2F)on1 [COMPOUND, (3S,4S)-1-Cyclopropylmethyl-4-{[5-(2,4-difluoro-phenyl)-isoxazole-3-carbonyl]-amino}-piperidine-3-carboxylic acid (1-pyrimidin-2-yl-cyclopropyl)-amide]
spontaneous remyelination in the corpus callosum one week after CPZ withdrawal [1]: accelerated significantly | mature oligodendrocyte counts in the corpus callosum ([2]; COMPOUND 100 mg/kg b.i.d. preventive from day 0 (prev-CPZ)): increased significantly | myelin stain (Luxol Fast Blue) in the corpus callosum ([2]; COMPOUND 100 mg/kg b.i.d. preventive, co-administered with cuprizone from day 0 (prev-CPZ)): increased significantly | mature oligodendrocyte counts in the corpus callosum ([2]; COMPOUND 100 mg/kg b.i.d. therapeutic from week 3 (ther-CPZ)): increased significantly | myelin stain (Luxol Fast Blue) in the corpus callosum ([2]; COMPOUND 100 mg/kg b.i.d. therapeutic, starting 3 weeks after cuprizone start (ther-CPZ)): increased significantly | plasma CXCL12 increase over 24 h [3]: sustain plasma CXCL12 increase over 24 h; also recorded: sustain CXCL12 plasma levels over 24 hours | CXCL11 plasma levels at trough (PLP-induced EAE mice; COMPOUND 100 mg/kg b.i.d.): increases | CXCL12 plasma levels at trough (PLP-induced EAE mice; COMPOUND 100 mg/kg b.i.d.): increases | clinical scores in the PLP-induced EAE model (PLP-induced EAE mice; COMPOUND 100 mg/kg b.i.d.): maximally reduces | plasma CXCL11 levels (PLP-induced EAE mice; [9]): dose-dependent increase | plasma CXCL12 levels (PLP-induced EAE mice; [9]): dose-dependent increase | overall extent of the disease, mean cumulative disease scores over 30 days after treatment initiation (PLP-induced EAE mice; COMPOUND 10, 100, 150 mg/kg b.i.d. oral from disease onset (therapeutic)): dose-dependent efficacy | dose dependence of plasma CXCL12 concentrations (healthy male subjects; 1 to 200 mg single oral dose): dose-dependently increase | CXCL11 concentrations (healthy male subjects; healthy volunteers, single dose): essentially unchanged | route of excretion (healthy male subjects; oral microtracer, 100 mg dose level group): mainly excreted in feces and to a minor extent in urine | plasma CXCL12 levels compared to baseline (healthy male subjects; single oral dose, across tested dose range): approximately 2 fold | safety and tolerability (healthy male subjects; single oral doses from 1 to 200 mg, healthy male subjects): safe and well tolerated | CXCL12 plasma levels (MOG-induced EAE mice [5]; COMPOUND 100 mg/kg b.i.d. from day 7, at termination): increase | efficacy on the clinical scores of the disease (MOG-induced EAE mice [5]): moderate | overall burden of EAE disease (MOG-induced EAE mice [6]; COMPOUND 100 mg/kg b.i.d., preventive setting): significantly reduces | plasma CXCL12 levels (MOG-induced EAE mice [6]; COMPOUND 10, 30, 100 mg/kg b.i.d. from day 0, day 29, 1 to 4 hours post dosing): dose-dependent increase | overall extent of EAE disease, mean cumulative disease scores over the 29-days study (MOG-induced EAE mice [6]; COMPOUND 10, 30, 100 mg/kg b.i.d. oral from day 0 (preventive)): dose-dependent efficacy

Structure (SMILES): CCCCCCCCc1ccc(CCC(N)(CO)CO)cc1 [fingolimod, 2-amino-2-[2-(4-octylphenyl)ethyl]-propane-1,3-diol, reference compound]
spontaneous remyelination in the corpus callosum one week after CPZ withdrawal [1]: no effect | time for lymphocyte counts to return to the normal range after stopping therapy (patients; fingolimod, human): 1-2 months | time remaining in the blood with pharmacodynamic effects (decreased lymphocyte counts) following the last dose (patients; fingolimod, human): up to 2 months | lymphocyte count reduction over 24 h ([7]; fingolimod 0.03 mg/kg q.d., healthy female C57BL/6): partial efficacy | lymphocyte count reduction over 24 hours ([7]; fingolimod 0.3 mg/kg q.d.): fully efficacious | lymphocyte count in peripheral blood (MOG-induced EAE mice [5]; fingolimod 0.03 mg/kg q.d. from day 7, at termination): reduction | efficacy on the clinical scores of the disease (MOG-induced EAE mice [5]): minimal | plasma CXCL12 levels (MOG-induced EAE mice [6]; fingolimod 0.03 mg/kg q.d. from day 0): not associated with an increase | overall extent of EAE disease, cumulative disease scores over the 27-days study (MOG-induced EAE mice [6]; fingolimod 0.03 mg/kg q.d. oral from day 0 (preventive)): exhibits efficacy

Structure (SMILES): CCc1cc(/C(C)=N/OCc2ccc(C3CCCCC3)c(C(F)(F)F)c2)ccc1CN1CC(C(=O)O)C1 [siponimod, 1-(4-[1-[(E)-4-Cyclohexyl-3-trifluoromethyl-benzyloxyimino]-ethyl]-2-ethyl-benzyl)-azetidine-3-carboxylic acid]
persistence of residual pharmacodynamics effects (lowering of peripheral lymphocyte count) after the last dose (patients; siponimod, human): 3-4 weeks | time remaining in the blood after stopping therapy (patients; siponimod, human): up to 10 days | patients whose lymphocyte counts returned to the normal range (patients; siponimod, within 10 days of stopping therapy): 90 % of patients | lymphocyte count reduction over 24 h [8]: full efficacy
